Patent US4401656A, “N-Substituted dimeric cyclopeptide derivatives” (Ayerst, McKenna & Harrison, Ltd., priority 1980, dated 1983)

Experiments:
Klebsiella pneumoniae = test: serial broth dilution, growth inhibition; assay type: cell-based; details: nutrient broth, incubated at 37° C. for 2 days
Method: (§1) Grove and W. A. Randall in "Assay Methods of Antibiotics", Med. Encycl. Inc., New York, 1955. […] 289.
(§2) For example, by employing a test like the serial broth dilution, see Grove and Randall, cited above, in which dilutions of the compounds of this invention in nutrient broth are inoculated with the microorganisms or fungi, described above, incubated at 37° C. for 2 days, respectively, and examined for the presence of growth, it may be shown that the preferred compounds N'N'-dicyclohexyl-α,α'-diisopropyl-2,5,8,11,14,17-hexaoxo-1,4,7,10,13,16-hexaazacyclooctadecane-1,10-diacetamide, isomer L, (Example 1), N'N'-dicyclohexyl-α,α'-diisopropyl-2,5,8,11,14,17-hexaoxo-1,4,7,10,13,16-hexaazacyclooctadecane-1,10-diacetamide, isomer M, (Example 1), and α,α'-diphenyl-N'N'-dicyclohexyl-2,5,8,11,14,17-hexaoxo-1,4,7,10,13,16-hexaazacyclooctadecane-1,10-diacetamide, isomer L, (Example 1) are able to inhibit growth totally in this system of Klebsiella pneumoniae and Serratia marcescens at a concentration of 100 mcg/ml.

Serratia marcescens = test: serial broth dilution, growth inhibition; assay type: cell-based; details: nutrient broth, incubated at 37° C. for 2 days
Method: as §1, §2

| SMILES | concentration able to inhibit growth totally (Klebsiella pneumoniae) [µg/mL] | concentration able to inhibit growth totally (Serratia marcescens) [µg/mL] |
| --- | --- | --- |
| CC(C)C(C(=O)NC1CCCCC1)N1CC(=O)NCC(=O)NCC(=O)N(C(C(=O)NC2CCCCC2)C(C)C)CC(=O)NCC(=O)NCC1=O (stereo not drawn) [N,N'-Dicyclohexyl-α,α'-diisopropyl-2,5,8,11,14,17-hexaoxo-1,4,7,10,13,16-hexaazacyclooctadecane-1,10-diacetamide] | 100 | 100 |
| O=C1CNC(=O)CN(C(C(=O)NC2CCCCC2)c2ccccc2)C(=O)CNC(=O)CNC(=O)CN(C(C(=O)NC2CCCCC2)c2ccccc2)C(=O)CN1 (stereo not drawn) [α,α'-diphenyl-N,N'-dicyclohexyl-2,5,8,11,14,17-hexaoxo-1,4,7,10,13,16-hexaazacyclooctadecane-1,10-diacetamide] | 100 | 100 |
